Data from US20070248540A1, “Biochemical methods for measuring metabolic fitness of tissues or whole organisms” (The Regents of the University of California, priority 2002, published 2007).
Several values for one entry are separate records, joined by “and”; a condition that tells them apart may be missing. Identical values can stand only once. Like-named read-outs stand apart in the source and are kept apart here.

Experiments:
[1] = Body ^2H2O enrichment (saliva samples) in subjects ingesting 70% ^2H2O over eight weeks; format: in vivo; settings: individual human subjects; oral 70% ^2H2O, eight-week study; one value per subject (251498, 251515, 251598, 251748, 251771)
Protocol: The protocol for incorporation of ^2H into human mitochondrial DNA from muscle biopsy samples is illustrated in the experimental design of FIG. 3d. Five human subjects enrolled as out-patients ingested 70 ml of 70% ^2H2O three times a day for 5 days then twice a day for 5 days; then ingested 50 ml twice a day thereafter for the remainder of the eight-week study period. Every two weeks, subjects gave a saliva sample (for measurement of body ^2H2O enrichment). At week 8, an open muscle biopsy was performed under surgical conditions. Mitochondria were isolated from excised muscle tissue (1 g) by ultracentrifugation, using methods well known in the art. Isolation of mitochondrial (mt) DNA and phospholipids (PL) were by procedures well known in the art. Measurement of fractional synthesis of mt PL was as described in the general methods, supra and in Collins et al., supra. Measured ^2H-incorporation (EM1=excess abundance of M+1 mass isotopomer of the molecule) and fractional synthesis (f) of mt DNA and mt PL are shown in Table 1.

[2] = in vivo
Description: (§1) Relatively high body water enrichments of ^2H2O (e.g., 1-10% of the total body water is labeled) may be achieved using the techniques of the invention. Water enrichments of ^2H2O of 0.5%-15% may also be achieved using the techniques described herein. […] This finding in a large number of human subjects (>100 people) is contrary to previous concerns about vestibular toxicities at high doses of ^2H2O. Applicant has discovered that as long as rapid changes in body water enrichment are minimized (e.g., by initial administration in small, divided doses), high body water enrichments of ^2H2O can be maintained with a minimum toxicities. For example, the low expense of commercially available ^2H2O allows long-term maintenance of enrichments in the 1-5% range at relatively low expense (e.g., calculations reveal a lower cost for 2 months labeling at 2% ^2H2O enrichment, and thus 7-8% enrichment in the alanine precursor pool, than for 12 hours labeling of ^2H-leucine at 10% free leucine enrichment, and thus 7-8% enrichment in leucine precursor pool for that period).

[3] = Toxicity on long-term maintenance of ^2H2O body water enrichment in humans; format: in vivo, human; settings: body water enrichment 1-10% (0.5%-15%) maintained for weeks or months; >100 people
Description: as §1

[2H]O[2H] [^2H2O, deuterated water]
Body ^2H2O (%) [1]: 0.5% and 1.7% and 1.1% and 2.0% and 1.0% | evidence of toxicity [2]: without any evidence of toxicity | evidence of toxicity [3]: without any evidence of toxicity
